From ChEMBL document CHEMBL3507680, “University of Dundee, Gates Library screen for HepG2 cell viability”

Experiment: Human HepG2 cell viability assay in 384 well format
Format: toxicity, cell-based
Design: dose 125 nL, time 70.5 hour; cytotoxicity at 70.5 h: concentration not given beside the values
Details: HepG2 cells, read-out: Inhibition

Row | Structure (SMILES) | cytotoxicity at 70.5 h [%]
1 | Cn1ccc2c(ccn2CC(=O)Nc2ccc(Br)cc2)c1=O | 30.5
2 | Cc1ccc(Oc2ncccc2C(=O)O)c(C)c1 | -4.94
3 | CNC(=O)c1csc(-c2cccnc2)n1 | 2.96
4 | Cc1c(NC(=O)C(C)N(C)C)c(=O)n(-c2ccccc2)n1C (centres undefined) | -1.07
5 | Cc1ccc(Oc2ncccc2C(=O)N(C)CCCN(C)C)c(C)c1 | -5.42
6 | Cc1ccc(Oc2ncccc2C(=O)N(C)CCCN(C)C)cc1 | 0.617
7 | COc1ccc(C(=O)Nc2cccc(SC)c2)c(OC)n1 | 26.2
8 | CC1CN(c2ncccc2C(=O)Nc2cccc3c2CCCC3)CCN1 (centres undefined) | -5.69
9 | CCCNc1ccc(C(=O)NCCc2cccc(OC)c2)cn1 | -3.99
10 | O=C(NCC1CC1)c1cc(Br)cnc1N1CCCCC1 | -1.59
11 | CCOC(=O)CNC(=O)c1cccnc1Sc1cc(OC)ccc1OC | 11.1
12 | COc1ccc(OC)c(Sc2ncccc2C(=O)NCCSC)c1 | -8.11
13 | CCSc1ncccc1C(=O)NCc1ccc(N(C)C)cc1 | -7.85
14 | N#Cc1cnc(N2CCC3(CC2)OCCO3)nc1N | -5.59
15 | O=C(N[C@H]1CCCC[C@@H]1O)c1ccc(-c2nc3ccccc3[nH]2)cc1 | -1.28
16 | O=C(N[C@H]1CCCC[C@@H]1O)c1ccc2nc(-c3ccccc3)[nH]c2c1 | 9.22
17 | O=C(NC[C@H]1CCCC[C@H]1O)c1cccc2[nH]c(-c3cccs3)nc12 | -5.24
18 | O=C([C@@H]1CCCN1c1nccc(Nc2ccccc2)n1)N1CCCCC1 | 20.9
19 | CC(=O)N1N=C(c2ccccc2)OC1C(=O)NCCc1ccc(O)cc1 (centres undefined) | -1.25
20 | CCOCCNC(=O)[C@@H]1CCCN1c1nccc(Nc2ccccc2)n1 | -1.64
21 | CC1(C)CC(NC(=O)c2cnn(-c3ccccc3F)c2N)CC(C)(C)N1 | 19.7
22 | CN1CCC(N(C)C(=O)c2cnn(-c3ccccc3Br)c2N)CC1 | 0.0189

Row | Structure (SMILES) | cytotoxicity at 70.5 h [%]
23 | CC(=O)N1N=C(c2ccco2)OC1C(=O)NCCc1ccc(O)cc1 (centres undefined) | -2.51
24 | CC(=O)N1N=C(c2ccncc2)OC1C(=O)N(C)CCc1ccccc1 (centres undefined) | 4.98
25 | CC(=O)N1N=C(c2ccco2)OC1C(=O)N(C)CCc1ccccc1 (centres undefined) | 20.4
26 | CC(=O)N1N=C(c2ccccc2)OC1C(=O)NCCN(C(C)C)C(C)C (centres undefined) | -6.17
27 | CC(=O)N1N=C(c2ccccc2)OC1C(=O)NCC(=O)OC(C)(C)C (centres undefined) | -2.16
28 | CC(=O)N1N=C(c2cccs2)OC1C(=O)Nc1ccccc1 (centres undefined) | -8.33
29 | Cc1nc(-c2ccoc2)n(CC(=O)NCC(C)C)c1C | 1.09
30 | CN(C)CCN(C)c1cc(N2CCN(c3ccccn3)CC2)ncn1 | 13.5
31 | CN(C)C(=O)c1cc2ncc(C(=O)NC3CCCC3)cc2n1C | -0.145
32 | Cc1csc2cc(C(=O)NC3CCCC3)cnc12 | 3.45
33 | COCCN(CCOC)C(=O)c1cn(C(C)(C)C)c2ncccc12 | 3.1
34 | CNC(=O)c1cn(C(C)(C)C)c2ncccc12 | -2.43
35 | CC(C)(C)n1cc(C(=O)NCCN2CCOCC2)c2cccnc21 | 6.12
36 | CCNC(=O)c1cn(C(C)(C)C)c2ncccc12 | -0.924
37 | O=C(c1cn(Cc2ccccc2)c2ncccc12)N1CCCCC1 | 3.09
38 | CCN1CCN(C(=O)c2cn(Cc3ccccc3)c3ncccc23)CC1 | -0.985
39 | CN1CCCN(c2ncnc(N3CCOCC3)c2N)CC1 | -6.57
40 | CN(C)C(=O)c1cc(-c2ccccc2)[nH]n1 | -6.41
41 | COc1c(C(=O)N2CCNC(=O)C2)cnc2c1c(C)nn2C | 21
42 | NC1(CNC(=O)c2cc3ccccc3[nH]2)CCCC1 | 16
43 | Cn1c(C(=O)NCC2(N)CCCC2)cc2ccccc21 | 3.39
44 | CN1CCC(NC(=O)c2cc(C3CCCCC3)nc3ccccc23)CC1 | -2.29

Row | Structure (SMILES) | cytotoxicity at 70.5 h [%]
45 | CC(C)(O)CN1CCC(=O)N(Cc2ccco2)Cc2cc(F)ccc21 | 3.68
46 | CCOC(=O)[C@@H]1[C@@H](O)C(=O)N(C)C12CCN(C(=O)c1ccco1)CC2 | -4.06
47 | CCS(=O)(=O)N1CC(=O)N(CCOc2ccccc2)CC(O)C1 (centres undefined) | -2.23
48 | CC1(C)CN(CC(O)C(C)(C)C)C(=O)CN(C(=O)c2ccccc2)C1 (centres undefined) | -4.32
49 | CCOC(=O)[C@@H]1[C@@H](OC)C(=O)N(C)C12CCN(C(=O)C(CC)CC)CC2 | -7.55
50 | CCOC(=O)[C@H]1[C@@H](O)C(=O)N(C)C12CCN(C(=O)OCC)CC2 | 0.864
51 | CCOC(=O)[C@H]1[C@@H](O)C(=O)N(C)C12CCN(C(=O)CC(C)(C)C)CC2 | -6.45
52 | CCOC(=O)[C@H]1[C@@H](O)C(=O)N(C)C12CCN(C(=O)c1ccccc1)CC2 | -2.45
53 | COCC1N(C(=O)N2CCOCC2)[C@H]2CC[C@]1(O)CC2 (some centres undefined) | -1.43
54 | O=C(C1CCC1)N1C(CN2CCOCC2)[C@]2(O)CC[C@H]1CC2 (some centres undefined) | 13.5
55 | CN(C)C(=O)CN1C[C@H]2CCN(C(=O)C3CCCO3)CC[C@H]2S1(=O)=O (some centres undefined) | -4.76
56 | Cc1nnc([C@@H]2C[C@H]3CN(C(=O)C4CC4)C[C@H]3O2)[nH]1 | -5.22
57 | CC1CCCCN1C(=O)c1nc2c(n1C(C)C)CCN(C(=O)C1CC1)C2 (centres undefined) | -8.72
58 | CN(C)CC(=O)N1Cc2cc(-c3cc[nH]n3)ccc2C1c1cnco1 (centres undefined) | -1.64
59 | c1ccc(COCC2CNCc3nccn3C2)nc1 (centres undefined) | 0.439
60 | O=C(c1cccnc1)N1Cc2[nH]nc(COCCO)c2C1 | -4.06
61 | O=C(C1CCCO1)N1CC[C@@H]2CN(Cc3ccccc3)S(=O)(=O)[C@@H]2CC1 (some centres undefined) | -6.03
62 | Cc1nnc([C@H]2C[C@@H]3CCN(C(=O)C4CCOCC4)C[C@H]3O2)[nH]1 | -9.85
63 | c1cn2c(n1)CNCC(COCC1CC1)C2 (centres undefined) | -9.26
64 | CCN1CC2(CC1=O)CN(C(=O)C(C)C)CCN(S(C)(=O)=O)C2 (centres undefined) | 19.5
65 | COCCn1cnc(-c2cc(C(=O)NC(C)C)c3ccccn23)c1 | -6.05
66 | CC1N(CC2CC2)C(=O)COC12CCN(C(=O)c1ccno1)CC2 (centres undefined) | -4.07

Row | Structure (SMILES) | cytotoxicity at 70.5 h [%]
67 | CC1N(CC2CC2)C(=O)COC12CCN(C(=O)c1cscn1)CC2 (centres undefined) | -5.04
68 | CC(=O)N1CCC(c2cc3c(ncn3C)c(-c3cnn(C)c3)n2)CC1 | -8.6
69 | Cn1cccc1C(=O)NC[C@H]1C[C@@H]2CN(C(=O)c3ccno3)C[C@H]2O1 | -9.62
70 | c1cnc(NCc2n[nH]c3c2CCN(Cc2cccnc2)C3)nc1 | -12.3
71 | CCN1CC2(CC1=O)CN(C(=O)N(C)C)CCN(S(C)(=O)=O)C2 (centres undefined) | -10.5
72 | CCN1CC2(CC1=O)CN(C(=O)COC)CCN(S(C)(=O)=O)C2 (centres undefined) | -11
73 | O[C@H]1CCN(CC2CCOC2)[C@H]1Cc1ccncc1 (some centres undefined) | -11.6
74 | CC(C)Nc1nc2c(c(NC3CC3)n1)CN(C(=O)c1ccnnc1)CC2 | 32.6
75 | O=C(C1CCSCC1)N1CC[C@H]2OCC[C@@]2(COCC2CC2)C1 | -6.06
76 | COc1cccc(-c2cnc3n2CCC32CCN(C(C)=O)CC2)c1 | -3.5
77 | COCC1CN(C(=O)[C@H]2CCCO2)Cc2nnn(CC3CC3)c21 (some centres undefined) | -5.8
78 | Cc1nc(COCc2nc3c(o2)CN(C(=O)c2ccoc2)C3)cs1 | -7.05
79 | CC(C)N1CCC(c2ccnc3c(C(=O)N4CCOCC4)ncn23)CC1 | -5.36
80 | CC(C)(C)N1CCN(C(=O)Nc2cc(C(F)(F)F)c[nH]c2=O)CC1 | 10.7
81 | c1cc(CCN2CCN(c3ccc4nncn4n3)CC2)ccn1 | -11.9
82 | Cc1ccc(NC2CCN(C(=O)CCc3ccsc3)CC2)nn1 | -7.65
83 | CC(C)NC(=O)N(C)C(c1cccc(F)c1)c1ccccn1 (centres undefined) | -7.96
84 | CS(=O)(=O)CCC(=O)Nc1cc(F)ccc1OCC1CCCO1 (centres undefined) | 12.1
85 | O=C(O)c1c[nH]c2cc(NS(=O)(=O)c3ccc(Cl)cc3F)ccc12 | -5.42
86 | NC(=O)c1cc(C2CCCN(C(=O)CCc3cccs3)C2)n[nH]1 (centres undefined) | 10.7
87 | Cc1ccc(NC(=O)N2CCCC2)c(OCC2CCCO2)c1 (centres undefined) | -16.8
88 | Clc1ccccc1CCN1CCN(c2ccc3nncn3n2)CC1 | -16.3

Row | Structure (SMILES) | cytotoxicity at 70.5 h [%]
89 | CCOCC(O)CN1CCN(C(=O)c2cc(C)ccc2F)CC1 (centres undefined) | -3.47
90 | Nc1nc(Nc2ccccc2)cc(N2CCNCC2)n1 | -3.76
91 | Cc1ncsc1C(=O)NCC1CCC2(CCNCC2)CO1 (centres undefined) | -6.8
92 | Nc1nc(C(=O)NCC2CCC3(CCNCC3)CO2)cs1 (centres undefined) | -13.9
93 | Cc1nc(COC[C@@H]2CC[C@H]3NCC[C@H]3O2)cs1 | 38.8
94 | CN(Cc1cccs1)C1CCC[C@@H]2CN(C(=O)c3cnccn3)C[C@H]12 (some centres undefined) | -7.78
95 | Cn1cc(-c2nc3c(cc2C(=O)O)CCN(C(=O)C2CC2)CC3)cn1 | -7.13
96 | Cc1oncc1C(=O)N1C[C@H]2CCCC(N(C)Cc3cccs3)[C@H]2C1 (some centres undefined) | -8.63
97 | N#Cc1cccc(N2CCCC3(C2)CN(c2ncc(F)cn2)CCO3)n1 (centres undefined) | 1.87
98 | CCN(CC)c1ncc2c(c1C(=O)O)CCN(C1CCOC1)C2 (centres undefined) | 3.75
99 | CN1CCC2(CCCN(C(=O)c3cncn3C)C2)CC1 | -7.82
100 | CN(Cc1ccco1)Cc1cnc2n1CCN(c1ncccn1)CC2 | -9.53
101 | O=C(c1ccccc1)N1CCO[C@@H]2CN(c3ncccn3)C[C@@H]2C1 | -6.94
102 | Cn1nc(Cn2cccn2)c2c1CN(Cc1ccoc1)C2 | -3.73
103 | CN1CCN(c2ncc3c(c2C(=O)O)CCN(C2CCOC2)C3)CC1 (centres undefined) | -7.02
104 | O=C(O)c1c(-c2ccncc2)ncc2c1CCN(C1CCOC1)C2 (centres undefined) | -9.17
105 | CCCN1CCc2[nH]nc(C(=O)N3CCNC(=O)C3)c2C1 | -2.77
106 | O=C(O)c1cc2c(nc1-c1ccsc1)CCN(C1CCOC1)CC2 (centres undefined) | -12.7
107 | N#Cc1cccc(N2CCCC3(CNCCO3)C2)n1 (centres undefined) | -8.33
108 | O[C@H]1CCN(CC2CC2)[C@H]1Cc1ccncc1 | -4.14
109 | CN(C)CCN1CCO[C@H]2CN(C(=O)N(C)C)C[C@H]21 | 24.8
